Reference: patent US9359616B2, “Ribosomal polynucleotides and related expression systems” (The Scripps Research Institute, priority 2012, dated 2016)

What was measured:
[1] = system: mutated subunits (G693A 18S rRNA); test: 35S-Met/Cys pulse labeling of transfected N2a cells cultured with increasing concentrations of pactamycin (G693A mutated ribosomes); format: cell-based, mouse; conditions: even at the highest concentration tested of 6,400 ng/ml pactamycin; N2a cells (FIG. 4d)
wild type 40S subunits = test: 35S-Met/Cys pulse labeling of transfected N2a cells cultured with increasing concentrations of pactamycin (wild type ribosomes); format: cell-based, mouse; conditions: 100 ng/ml pactamycin, could be further blocked at higher concentrations, SDS-PAGE of 35S-labeled lysates (FIG. 4d)
From the text: There were no reports of functionally tested examples of nucleotide changes conferring antibiotic resistance in higher eukaryotes. Pactamycin affects translation by binding to rRNA in the E-site of the small subunit and disrupting the positioning of mRNA at this site. The result of pactamycin-binding is a block in […] and the accumulation of di-peptides resulting from aborted initiation events. Analyzed were the effects of mutations in mouse 18S rRNA at four residues, G963, A964, C1065 and C1066 in SEQ ID NO:23. These residues correspond, respectively, to positions 693, 694, 795 and 796 at the E-site of E. coli 16S rRNA which were identified from crystal structures. Unless otherwise noted, the numbering of these sites in mammalian 18S rRNA sequences is based on that in E. coli 16S rRNA. […] Pactamycin resistance was assessed by 35S-Met/Cys pulse labeling of transfected cells in the presence of 100 ng/ml antibiotic. […] Mutated ribosomes were also analyzed for their ability to translate a luciferase mRNA in cells transfected with a luciferase reporter plasmid (pGL4.13), and cultured in the presence of 100 ng/ml pactamycin (FIG. 4b).
The levels of synthetic 18S rRNA for constructs with each mutation were monitored using the hybridization tag and found no substantial differences that could account for the difference in translation between G693A and the other mutations (FIG. 4c). […]

CC(=O)c1cccc(N[C@H]2[C@H](N)[C@@](NC(=O)N(C)C)([C@H](C)O)[C@@](C)(O)[C@@]2(O)COC(=O)c2c(C)cccc2O)c1 [pactamycin]
translation from the mutated subunits [1]: unaffected | translation from wild type 40S subunits (wild type 40S subunits): substantially blocked
